# Measured values as given in US20070104785A1, “TABLETS OF LINEZOLID FORM III AND PROCESSES FOR THEIR PREPARATION” (priority 2005, published 2007).
# Test: Gelling tendency when the solid dosage form contacts water
# Format: physicochemical
# Settings: in words
# Source text: Linezolid Form I is known from the publication, Brickner S J et al. (J. Med. Chem. 39 (3), 673-679, 1996). U.S. Pat. No. 6,559,305 discloses linezolid Form II. Tablets containing linezolid Form II are known from U.S. Pat. No. 6,514,529. The PCT application WO 05035530 discloses crystalline Form III of linezolid. […]. The gel formation leads to an erratic dissolution of the linezolid from the dosage form. A dosage form should deliver a drug in a reproducible way so that a maximum therapeutic effect can be achieved. An unpredictable release from the dosage form can compromise efficacy. The gelling tendency of linezolid Form III would discourage its formulation into solid dosage forms.
# Without wishing to be bound by any theory, the following explanation is given for mechanisms involved with the solid dosage form of the present invention that provide a reproducible dissolution profile. […]. When linezolid Form III crystal comes in contact with water, the surface of the crystal dissolves and the dissolved linezolid Form III instead of spreading in water tends to stick to the crystal surface to form a gel layer around the crystal. The gel formation around the crystal acts as a barrier impeding further contact with water, which in turn retards the solubilization of linezolid Form III. […]
structure (smiles),measurement,value
"CC(=O)NC[C@H]1CN(c2ccc(N3CCOCC3)c(F)c2)C(=O)O1 [Linezolid Form III, (S)—N—[[3-[3-Fluoro-4-(4-morpholinyl)phenyl]-2-oxo-5-oxazolidinyl]methyl]-acetamide]",gelling tendency in contact with water,exhibits a gelling tendency
